From ChEMBL document CHEMBL4507268 (2021)

Key:
Details in all cases: Compound concentration 1.0 uM
[1] = target: CDK9/cyclin T1 (Homo sapiens) (UniProt O60563+P50750)
[2] = target: Cyclin-dependent kinase-like 1 (Homo sapiens) (UniProt Q00532)
[3] = target: Death-associated protein kinase 2 (Homo sapiens) (UniProt Q9UIK4)
[4] = target: T1, Serine/threonine-protein kinase 17B (Homo sapiens) (UniProt O94768)
T1 sequence (whole entry): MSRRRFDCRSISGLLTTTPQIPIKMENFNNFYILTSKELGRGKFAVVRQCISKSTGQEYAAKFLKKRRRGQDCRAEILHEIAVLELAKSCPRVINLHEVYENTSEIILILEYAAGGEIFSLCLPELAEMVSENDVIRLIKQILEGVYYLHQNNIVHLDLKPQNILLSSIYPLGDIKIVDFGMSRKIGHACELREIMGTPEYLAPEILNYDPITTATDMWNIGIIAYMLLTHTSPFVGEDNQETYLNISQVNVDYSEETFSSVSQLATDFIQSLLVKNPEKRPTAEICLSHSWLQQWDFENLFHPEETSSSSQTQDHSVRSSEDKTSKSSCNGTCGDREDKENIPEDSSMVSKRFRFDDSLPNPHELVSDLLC

[5] = target: Epidermal growth factor receptor (Homo sapiens) (UniProt P00533)
[6] = target: T2, Rhodopsin kinase GRK1 (Homo sapiens) (UniProt Q15835)
T2 sequence (whole entry): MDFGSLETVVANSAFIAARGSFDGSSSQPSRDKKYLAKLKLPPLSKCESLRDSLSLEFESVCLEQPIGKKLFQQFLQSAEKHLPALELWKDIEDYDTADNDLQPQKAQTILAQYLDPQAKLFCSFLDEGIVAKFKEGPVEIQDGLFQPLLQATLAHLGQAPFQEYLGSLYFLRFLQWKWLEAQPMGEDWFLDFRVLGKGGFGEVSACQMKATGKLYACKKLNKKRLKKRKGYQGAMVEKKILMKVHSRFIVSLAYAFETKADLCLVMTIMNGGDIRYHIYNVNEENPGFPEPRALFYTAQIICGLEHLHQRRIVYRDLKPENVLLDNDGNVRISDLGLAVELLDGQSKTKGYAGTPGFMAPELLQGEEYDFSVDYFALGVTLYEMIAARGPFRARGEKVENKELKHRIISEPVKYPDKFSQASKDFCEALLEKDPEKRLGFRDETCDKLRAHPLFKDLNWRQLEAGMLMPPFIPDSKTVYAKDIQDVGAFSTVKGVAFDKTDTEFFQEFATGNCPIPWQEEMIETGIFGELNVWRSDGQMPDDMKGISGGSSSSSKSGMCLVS

[7] = target: Interleukin-1 receptor-associated kinase 1 (Homo sapiens) (UniProt P51617)
[8] = target: Tyrosine-protein kinase Lck (Homo sapiens) (UniProt P06239)
[9] = target: Serine/threonine-protein kinase MRCK beta (Homo sapiens) (UniProt Q9Y5S2)
[10] = target: Ribosomal protein S6 kinase alpha-4 (Homo sapiens) (UniProt O75676)
[11] = target: T3, Serine/threonine-protein kinase Nek2 (Homo sapiens) (UniProt P51955)
T3 sequence (whole entry): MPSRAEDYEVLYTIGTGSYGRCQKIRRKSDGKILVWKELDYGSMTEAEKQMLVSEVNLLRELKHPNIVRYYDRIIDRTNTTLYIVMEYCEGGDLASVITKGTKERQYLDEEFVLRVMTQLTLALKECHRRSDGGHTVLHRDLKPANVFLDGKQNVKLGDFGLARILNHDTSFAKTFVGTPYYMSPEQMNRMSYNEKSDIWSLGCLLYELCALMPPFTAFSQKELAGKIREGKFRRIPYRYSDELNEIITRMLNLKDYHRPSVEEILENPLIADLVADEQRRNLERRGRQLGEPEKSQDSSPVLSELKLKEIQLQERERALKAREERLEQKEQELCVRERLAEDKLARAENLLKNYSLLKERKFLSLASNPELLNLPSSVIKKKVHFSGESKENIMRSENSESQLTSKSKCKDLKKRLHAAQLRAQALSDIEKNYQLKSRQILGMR

[12] = target: Serine/threonine-protein kinase PAK 1 (Homo sapiens) (UniProt Q13153)
[13] = target: [Pyruvate dehydrogenase (acetyl-transferring)] kinase isozyme 4, mitochondrial (Homo sapiens) (UniProt Q16654)
[14] = target: Protein kinase C beta type (Homo sapiens) (UniProt P05771)
[15] = target: Rho-associated protein kinase 2 (Homo sapiens) (UniProt O75116)
[16] = target: Macrophage-stimulating protein receptor (Homo sapiens) (UniProt Q04912)
[17] = target: Serine/threonine-protein kinase SBK1 (Homo sapiens) (UniProt Q52WX2)
[18] = target: T4, Serine/threonine-protein kinase Sgk2 (Homo sapiens) (UniProt Q9HBY8)
T4 sequence (whole entry): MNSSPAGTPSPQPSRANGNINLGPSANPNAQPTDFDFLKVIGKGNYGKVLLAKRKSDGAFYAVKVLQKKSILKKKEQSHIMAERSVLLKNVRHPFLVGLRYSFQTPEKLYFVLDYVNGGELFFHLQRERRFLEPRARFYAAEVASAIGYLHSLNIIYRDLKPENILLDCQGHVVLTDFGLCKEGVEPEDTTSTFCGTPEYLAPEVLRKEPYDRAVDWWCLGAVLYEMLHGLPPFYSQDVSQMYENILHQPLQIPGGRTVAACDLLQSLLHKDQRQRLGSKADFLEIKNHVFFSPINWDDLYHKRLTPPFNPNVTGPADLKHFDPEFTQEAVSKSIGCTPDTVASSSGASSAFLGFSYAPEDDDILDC

[19] = target: Serine/threonine-protein kinase 32C (Homo sapiens) (UniProt Q86UX6)
[20] = target: TGF-beta receptor type-2 (Homo sapiens) (UniProt P37173)
[21] = target: Wee1-like protein kinase (Homo sapiens) (UniProt P30291)

Measured: % residual kinase activity

Sequence of Rho-associated protein kinase 2 (Homo sapiens) (O75116 whole entry, looked up): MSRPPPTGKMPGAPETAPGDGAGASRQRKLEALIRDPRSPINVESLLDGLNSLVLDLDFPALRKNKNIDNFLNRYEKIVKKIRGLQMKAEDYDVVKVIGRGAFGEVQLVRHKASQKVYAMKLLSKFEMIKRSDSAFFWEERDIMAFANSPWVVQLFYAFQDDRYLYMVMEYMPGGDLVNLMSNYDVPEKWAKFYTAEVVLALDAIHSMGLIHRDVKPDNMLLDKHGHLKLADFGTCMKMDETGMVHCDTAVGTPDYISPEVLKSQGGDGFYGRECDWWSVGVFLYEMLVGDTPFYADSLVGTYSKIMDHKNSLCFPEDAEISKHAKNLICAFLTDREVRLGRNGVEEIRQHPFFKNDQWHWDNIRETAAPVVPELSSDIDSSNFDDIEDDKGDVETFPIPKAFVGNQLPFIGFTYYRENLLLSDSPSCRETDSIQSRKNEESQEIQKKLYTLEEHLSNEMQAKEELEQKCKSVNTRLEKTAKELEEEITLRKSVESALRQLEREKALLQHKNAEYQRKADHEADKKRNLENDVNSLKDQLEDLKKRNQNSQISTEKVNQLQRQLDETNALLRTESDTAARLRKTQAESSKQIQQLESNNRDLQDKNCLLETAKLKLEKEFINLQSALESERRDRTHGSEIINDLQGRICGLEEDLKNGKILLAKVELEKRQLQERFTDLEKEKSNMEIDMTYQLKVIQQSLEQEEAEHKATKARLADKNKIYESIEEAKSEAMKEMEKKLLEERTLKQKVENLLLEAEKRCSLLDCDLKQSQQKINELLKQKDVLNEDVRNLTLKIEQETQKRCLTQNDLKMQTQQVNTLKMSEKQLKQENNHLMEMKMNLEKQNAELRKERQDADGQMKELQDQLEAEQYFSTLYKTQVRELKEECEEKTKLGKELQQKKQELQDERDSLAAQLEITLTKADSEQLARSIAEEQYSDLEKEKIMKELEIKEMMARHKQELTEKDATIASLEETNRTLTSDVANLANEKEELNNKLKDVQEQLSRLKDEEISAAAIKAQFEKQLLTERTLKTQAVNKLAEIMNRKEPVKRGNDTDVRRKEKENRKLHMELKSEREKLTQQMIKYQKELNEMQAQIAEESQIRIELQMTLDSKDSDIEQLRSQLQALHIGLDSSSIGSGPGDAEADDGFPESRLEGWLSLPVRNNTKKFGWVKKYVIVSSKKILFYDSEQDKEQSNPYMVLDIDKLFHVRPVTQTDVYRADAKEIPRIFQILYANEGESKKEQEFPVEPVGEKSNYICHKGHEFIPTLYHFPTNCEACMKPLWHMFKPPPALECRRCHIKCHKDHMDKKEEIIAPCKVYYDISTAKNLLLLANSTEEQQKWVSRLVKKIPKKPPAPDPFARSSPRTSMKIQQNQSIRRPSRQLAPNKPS
Sequence of Epidermal growth factor receptor (Homo sapiens) (P00533 whole entry): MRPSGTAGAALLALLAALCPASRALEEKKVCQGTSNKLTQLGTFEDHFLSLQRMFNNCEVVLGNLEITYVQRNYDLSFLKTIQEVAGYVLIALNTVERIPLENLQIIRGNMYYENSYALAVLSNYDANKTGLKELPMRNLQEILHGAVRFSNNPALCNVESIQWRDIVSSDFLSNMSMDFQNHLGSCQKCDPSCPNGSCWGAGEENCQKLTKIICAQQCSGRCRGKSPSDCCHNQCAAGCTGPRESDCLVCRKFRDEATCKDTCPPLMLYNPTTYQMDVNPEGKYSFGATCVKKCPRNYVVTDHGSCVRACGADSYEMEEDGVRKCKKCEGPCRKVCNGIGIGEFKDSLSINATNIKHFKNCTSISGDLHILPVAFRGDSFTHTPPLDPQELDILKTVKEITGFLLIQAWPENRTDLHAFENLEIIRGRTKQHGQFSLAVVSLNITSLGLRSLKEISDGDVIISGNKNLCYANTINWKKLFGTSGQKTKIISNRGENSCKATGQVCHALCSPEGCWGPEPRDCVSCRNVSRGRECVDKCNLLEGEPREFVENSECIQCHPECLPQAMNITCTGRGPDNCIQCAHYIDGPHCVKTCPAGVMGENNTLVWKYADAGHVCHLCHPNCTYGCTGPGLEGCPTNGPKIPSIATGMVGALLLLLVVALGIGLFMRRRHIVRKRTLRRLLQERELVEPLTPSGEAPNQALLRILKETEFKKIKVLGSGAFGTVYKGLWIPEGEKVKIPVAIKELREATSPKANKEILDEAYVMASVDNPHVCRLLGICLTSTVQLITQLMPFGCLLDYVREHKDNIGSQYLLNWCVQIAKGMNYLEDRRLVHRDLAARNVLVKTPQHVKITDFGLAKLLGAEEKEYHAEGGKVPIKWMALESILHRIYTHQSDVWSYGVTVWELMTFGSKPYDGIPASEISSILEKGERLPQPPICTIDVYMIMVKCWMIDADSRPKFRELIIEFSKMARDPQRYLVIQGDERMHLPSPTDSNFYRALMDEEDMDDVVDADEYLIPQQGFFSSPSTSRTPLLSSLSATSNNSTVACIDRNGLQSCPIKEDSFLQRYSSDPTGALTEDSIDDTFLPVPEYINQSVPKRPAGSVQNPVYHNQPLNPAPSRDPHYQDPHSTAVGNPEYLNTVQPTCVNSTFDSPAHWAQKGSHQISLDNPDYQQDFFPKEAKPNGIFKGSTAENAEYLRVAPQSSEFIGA
Sequence of Serine/threonine-protein kinase MRCK beta (Homo sapiens) (Q9Y5S2 whole entry): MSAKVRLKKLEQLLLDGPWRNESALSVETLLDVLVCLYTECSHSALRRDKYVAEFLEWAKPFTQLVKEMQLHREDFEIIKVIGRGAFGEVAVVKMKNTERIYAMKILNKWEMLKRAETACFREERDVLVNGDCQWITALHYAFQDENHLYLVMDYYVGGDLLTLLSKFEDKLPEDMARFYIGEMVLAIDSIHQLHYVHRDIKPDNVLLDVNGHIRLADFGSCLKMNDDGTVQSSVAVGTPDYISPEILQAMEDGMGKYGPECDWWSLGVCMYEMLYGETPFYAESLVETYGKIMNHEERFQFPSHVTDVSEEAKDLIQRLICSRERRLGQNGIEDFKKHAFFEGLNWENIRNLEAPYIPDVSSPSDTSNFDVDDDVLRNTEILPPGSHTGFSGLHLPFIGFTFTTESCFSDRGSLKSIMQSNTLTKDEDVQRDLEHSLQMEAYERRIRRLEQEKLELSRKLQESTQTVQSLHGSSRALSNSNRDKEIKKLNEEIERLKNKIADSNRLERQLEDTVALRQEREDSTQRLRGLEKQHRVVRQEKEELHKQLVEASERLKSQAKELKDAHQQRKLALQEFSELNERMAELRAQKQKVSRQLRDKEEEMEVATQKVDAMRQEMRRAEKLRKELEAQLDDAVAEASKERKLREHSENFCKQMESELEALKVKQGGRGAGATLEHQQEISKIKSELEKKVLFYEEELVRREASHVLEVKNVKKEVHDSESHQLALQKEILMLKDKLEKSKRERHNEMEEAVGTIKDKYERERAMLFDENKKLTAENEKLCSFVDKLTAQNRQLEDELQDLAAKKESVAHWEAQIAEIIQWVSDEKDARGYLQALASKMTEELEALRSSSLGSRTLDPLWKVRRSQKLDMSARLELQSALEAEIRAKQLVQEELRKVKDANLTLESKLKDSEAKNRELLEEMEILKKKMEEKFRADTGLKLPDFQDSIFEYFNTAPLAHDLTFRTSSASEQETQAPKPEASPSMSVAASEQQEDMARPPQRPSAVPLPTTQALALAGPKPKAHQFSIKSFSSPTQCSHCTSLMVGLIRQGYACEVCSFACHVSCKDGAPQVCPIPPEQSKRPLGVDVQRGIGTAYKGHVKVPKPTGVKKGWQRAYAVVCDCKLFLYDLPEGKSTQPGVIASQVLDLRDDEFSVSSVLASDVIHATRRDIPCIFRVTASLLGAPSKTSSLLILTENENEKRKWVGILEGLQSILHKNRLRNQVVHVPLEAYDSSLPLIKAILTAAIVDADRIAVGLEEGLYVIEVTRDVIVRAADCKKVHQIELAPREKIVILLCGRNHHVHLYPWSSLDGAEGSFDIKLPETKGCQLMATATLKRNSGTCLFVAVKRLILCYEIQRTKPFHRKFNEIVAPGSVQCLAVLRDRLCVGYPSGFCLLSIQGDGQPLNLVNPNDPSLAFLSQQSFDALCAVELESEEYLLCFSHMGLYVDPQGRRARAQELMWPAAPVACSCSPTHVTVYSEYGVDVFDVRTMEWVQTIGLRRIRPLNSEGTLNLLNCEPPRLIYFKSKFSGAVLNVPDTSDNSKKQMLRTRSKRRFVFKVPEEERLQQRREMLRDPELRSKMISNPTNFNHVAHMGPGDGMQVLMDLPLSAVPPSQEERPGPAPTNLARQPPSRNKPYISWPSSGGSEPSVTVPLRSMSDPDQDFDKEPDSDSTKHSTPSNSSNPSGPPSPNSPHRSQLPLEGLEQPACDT
Sequence of Wee1-like protein kinase (Homo sapiens) (P30291 whole entry, looked up): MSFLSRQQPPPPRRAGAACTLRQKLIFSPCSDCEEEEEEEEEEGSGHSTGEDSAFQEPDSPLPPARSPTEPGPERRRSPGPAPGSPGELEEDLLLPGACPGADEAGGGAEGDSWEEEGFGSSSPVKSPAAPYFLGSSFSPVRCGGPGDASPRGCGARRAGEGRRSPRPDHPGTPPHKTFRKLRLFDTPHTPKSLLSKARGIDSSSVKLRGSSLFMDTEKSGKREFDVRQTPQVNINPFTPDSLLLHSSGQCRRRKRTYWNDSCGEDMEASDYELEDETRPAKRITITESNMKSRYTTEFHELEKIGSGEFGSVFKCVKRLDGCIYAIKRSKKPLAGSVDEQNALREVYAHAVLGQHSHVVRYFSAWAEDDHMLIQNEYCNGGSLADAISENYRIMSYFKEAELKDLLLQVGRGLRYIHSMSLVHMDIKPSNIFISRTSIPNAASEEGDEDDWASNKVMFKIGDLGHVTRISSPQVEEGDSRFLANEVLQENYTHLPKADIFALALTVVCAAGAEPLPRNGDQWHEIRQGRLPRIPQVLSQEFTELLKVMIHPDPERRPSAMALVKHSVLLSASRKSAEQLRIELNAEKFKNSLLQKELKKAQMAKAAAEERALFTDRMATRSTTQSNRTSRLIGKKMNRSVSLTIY

CN1CCN(c2cnc3c(C4CCN(C(=O)c5ccc(OC(F)(F)F)cc5N)CC4)ncnc3c2)CC1 [BAY-885]
inactive: [1] 103% | [2] 115% | [3] 99% | [4] 117% | [5] 105% | [6] 117% | [7] 110% | [8] 98% | [9] 110% | [10] 107% | [11] 111% | [12] 95% | [13] 104% | [14] 110% | [15] 91% | [16] 100% | [17] 96% | [18] 89% | [19] 103% | [20] 108% | [21] 108%
